The source of these data is article PMC6545112 (Journal of medicinal chemistry, 2018).

In data set [1] the test system is MDM2, p53, p21 and PARP cleavage in RS4;11 xenograft tumors. The following applies: single dose, mice; cited from earlier work.
In a further data set the test system is RS4;11 cell line. Nature of the data set: cell growth inhibition, WST-8 assay, RS4. Type of data set: cell-based, human. To be noted: for IC50: 4 days, WST-8 assay. In general terms: Tetrazolium assays rely on reduction of a dye to a coloured formazan, in cell work by metabolically active cells.
For another data set, the system named is MOLM-13. Description: cell growth inhibition assay, MOLM-13. Type of data set: cell-based, human. The following applies: read-out: IC50 (nM) in cell growth inhibition assay; MOLM-13, AML, p53 WT.
The next data set has as its system MOLM-14. Description: cell growth inhibition assay, MOLM-14. Format: cell-based, human. The following applies: read-out: IC50 (nM) in cell growth inhibition assay; MOLM-14, AML, p53 WT.
For another data set, the system named is SIG-M5. Nature of the data set: cell growth inhibition assay, SIG-M5. Type of data set: cell-based, human. The following applies: read-out: IC50 (nM) in cell growth inhibition assay; SIG-M5, AML, p53 WT.
The test system of the next data set is ML-2. Description: cell growth inhibition assay, ML-2. Type of data set: cell-based, human. To be noted: read-out: IC50 (nM) in cell growth inhibition assay; ML-2, AML, p53 WT.
In the next data set the test system is OCL-AML-5. Description: cell growth inhibition assay, OCL-AML-5. The following applies: read-out: IC50 (nM) in cell growth inhibition assay; OCL-AML-5, AML, p53 WT. Type of data set: cell-based, human.
The test system of the next data set is Mono-Mac-6. Description: cell growth inhibition assay, Mono-Mac-6. To be noted: read-out: IC50 in cell growth inhibition assay; Mono-Mac-6, AML, p53 MUT. Type of data set: cell-based, human.
Another data set deals with KG-1. Description: cell growth inhibition assay, KG-1. Format: cell-based, human. The following applies: read-out: IC50 in cell growth inhibition assay; KG-1, AML, p53 MUT.
Data set [2] has as its system human acute leukemia cell lines with wild-type p53. Description: cell growth inhibition, panel of acute leukemia cell lines with wild-type p53. Type of data set: cell-based.
Data set [3] has as its system leukemia cell lines with mutated p53. Nature of the data set: cell growth inhibition, leukemia cell lines with mutated p53. Format: cell-based, human. To be noted: read-out: IC50 in leukemia cell lines with mutated p53.
Data set [4] deals with p53 target genes (MDM2, p21, PUMA) and TP53 in RS4;11 cells. Description: qRT-PCR analysis of mRNA levels of p53 target genes and TP53 in RS4. Type of data set: cell-based, human. To be noted: RS4;11, 6 h. (In general: Real-time PCR tracks product formation cycle by cycle.)
For a further data set, the system named is RS4;11 cells. Description: flow cytometric analysis of apoptosis, Annexin V/PI double staining. Format: cell-based, human. The following applies: RS4;11, 24 h treatment. A general note: Flow cytometry measures light scatter and fluorescence of single cells or particles in a stream.
The test system of data set [5] is MDM2, p53, p21 and PARP cleavage in RS4;11 xenograft tumors. Description: pharmacodynamic analysis in RS4. Type of data set: in vivo, mice. To be noted: single dose 25 mg/kg, IV.
The test system of another data set is RS4;11 xenograft tumors. Nature of the data set: antitumor activity in the RS4. Format: in vivo, mice.
The target of data set [6] is MDM2 and p53 proteins in RS4;11 cells (Homo sapiens, UniProt Q00987). Nature of the data set: western blotting analysis of MDM2 and p53 proteins in RS4. Type of data set: cell-based.
Sequence of MDM2 and p53 proteins in RS4;11 cells (Q00987 whole entry): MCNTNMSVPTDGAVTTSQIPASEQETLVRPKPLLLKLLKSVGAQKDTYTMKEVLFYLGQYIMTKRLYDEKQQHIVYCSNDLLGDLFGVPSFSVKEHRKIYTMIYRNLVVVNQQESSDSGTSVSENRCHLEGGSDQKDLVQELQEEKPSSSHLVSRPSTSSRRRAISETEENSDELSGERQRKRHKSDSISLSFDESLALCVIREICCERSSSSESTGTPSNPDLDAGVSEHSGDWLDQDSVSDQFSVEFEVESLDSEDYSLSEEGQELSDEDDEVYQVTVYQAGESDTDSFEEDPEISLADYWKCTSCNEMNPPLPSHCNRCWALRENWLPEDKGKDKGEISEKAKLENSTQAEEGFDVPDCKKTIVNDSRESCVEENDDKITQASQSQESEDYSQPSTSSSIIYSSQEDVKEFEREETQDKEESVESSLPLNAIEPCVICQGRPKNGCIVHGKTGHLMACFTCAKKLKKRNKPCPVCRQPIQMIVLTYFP
The target of data set [7] is MDM2 and p53 proteins in MV4;11 cell line (Homo sapiens, UniProt Q00987). Description: western blotting analysis of MDM2 and p53 proteins in MV4. Type of data set: cell-based. The following applies: MV4;11, 2 h, compared to RS4;11.
Sequence of MDM2 and p53 proteins in MV4;11 cell line (Q00987 whole entry): as above
Another data set deals with MV4;11 AML cell line. Nature of the data set: cell growth inhibition, MV4. Format: cell-based, human.
For data set [8] the following is noted: first efficacy experiment.
[9] abbreviates: read-out: IC50 (nM) in inhibition of cell growth in the RS4;11 cell line.

“Also recorded” adds a separate entry of the source. Like-named read-outs stand apart in the source and are kept apart here.

For `CC(C)(C)C[C@@H]1N[C@@H](C(=O)N[C@H]2CC[C@H](O)CC2)[C@H](c2cccc(Cl)c2F)[C@]12C(=O)Nc1cc(Cl)ccc12` [MI-77301], the “duration of p53 protein upregulation in tumor tissue” value in data set [1] is “only a few hours”.
Broadly, the IC50 is the concentration that gives 50% inhibition. “(3’R,4’S,5’R)-6”-Chloro-4’-(3-Chloro-2-fluorophenyl)-N-(4-((5-(2-(2,6-dioxopiperidin-3-yl)-1,3-dioxoisoindolin-4-yl)pent-4-yn-1-yl)carbamoyl)phenyl)-2”-oxodispiro[cyclohexane-1,2’-pyrrolidine-3’,3”-indoline]-5’-carboxamide [Compound 14]”: the “times more potent than MD-222 in inhibition of cell growth” value in the data set with RS4;11 cell line (RS4;11) is listed as 2 times. The IC50 in the data set with RS4;11 cell line (setting [9]) is 1.5 ± 0.5 nM; with MOLM-13 it was 7.3 ± 3 nM; with MOLM-14 it was 10.5 ± 3 nM; in the data set with SIG-M5 it was 19.8 ± 11 nM; in the data set with ML-2, 4.4 ± 2 nM; with OCL-AML-5, 33.1 ± 18 nM. Besides, the concentration for half-maximal inhibition (IC50) (in the data set on Mono-Mac-6; in the data set with KG-1; in data set [3]) was above 10000 nM throughout. Moreover, the “times more potent than MI-1061 in cell growth inhibition” value in data set [2] is listed as above 10 times. The “effect on TP53 mRNA” value in [4] is given as “have no effect on TP53”. For the same compound, the “times more potent than MI-1061 in transcriptional upregulation of p53 target genes” value in [4] is given as above 10 times. In addition, the “times more potent than MI-1061 in inducing apoptosis” value in the data set on RS4;11 cells was above 10 times. Further, in data set [5], the “PARP cleavage in tumor tissue” value was “evident at the 24 h time point”. For the same compound, in data set [5] (depleted at 3 h), the “persistence of MDM2 protein depletion in tumor tissue” value is given as above 24 h. For the same compound, the “duration of p53 and p21 upregulation in tumor tissue” value in data set [5] (strong at 3 h) is given as above 24 h. Besides, the antitumor activity result with RS4;11 xenograft tumors (25 mg/kg, daily, 5 days a week for 2 weeks) is given as “complete tumor regression”; with RS4;11 xenograft tumors (50 mg/kg, every other day for three weeks) it was “complete tumor regression”; with RS4;11 xenograft tumors (50 mg/kg, weekly dosing) it was “complete tumor growth inhibition”.
In the case of “(3’R,4’S,5’R)-6”-Chloro-4’-(3-Chloro-2-fluorophenyl)-N-(4-((5-(2-(2,6-dioxopiperidin-3-yl)-1-oxoisoindolin-4-yl)pentyl)carbamoyl)phenyl)-2”-oxodispiro[cyclohexane-1,2’-pyrrolidine-3’,3”-indoline]-5’-carboxamide [Compound 13]”, the “times more potent than 1 in inhibition of cell growth” value in the data set with RS4;11 cell line (RS4;11) was 4 times. Further, the IC50 with RS4;11 cell line (setting [9]) was determined as 2.8 ± 1.1 nM; in the data set on MOLM-13 it was 11.7 ± 4 nM; in the data set on MOLM-14, 22.5 ± 8 nM; with SIG-M5, 29.9 ± 16 nM; with ML-2, 11.5 ± 6 nM; in the data set on OCL-AML-5 it was 58.2 ± 29 nM. For the same compound, the IC50 in the data set with Mono-Mac-6 and with KG-1 was above 10000 nM in each case. For the same compound, the “concentration that reduces/depletes MDM2 protein” value in [6] (RS4;11 / leukemia cells, 2 h treatment) is reported as at most 1 nM. Further, the “effect on MDM2 and p53 protein levels (western blotting)” value (“effect on MDM2 and p53 protein levels” below) in [7] is “similarly potent and effective in inducing depletion of MDM2 protein and accumulation of p53 protein”. In data set [4], the “effect on TP53 mRNA” value is “have no effect on TP53”. Also, the “times more potent than MI-1061 in transcriptional upregulation of p53 target genes” value in data set [4] is above 10 times.
In the case of `O=C(O)c1ccc(NC(=O)[C@@H]2NC3(CCCCC3)[C@@]3(C(=O)Nc4cc(Cl)ccc43)[C@H]2c2cccc(Cl)c2F)cc1` [MI-1061, reference compound], the “effect of pretreatment with lenalidomide on cell growth inhibitory activity” value is listed as “no significant effect” with RS4;11 cell line (RS4;11, 4 days, WST-8) and “has no effect on the activity” with MV4;11 AML cell line. In addition, the IC50 in data set [3] (Homo sapiens) is above 10000 nM. Further, the “effect on MDM2 and p53 protein levels” value in data set [6] (RS4;11 cells, 2 h treatment) was “inducing accumulation of both MDM2 and p53; also recorded: induces accumulation of both MDM2 and p53 proteins”. Besides, the “transcriptional upregulation of p53 target genes (MDM2, p21, PUMA)” value in data set [4] is listed as “effectively induces marked transcriptional upregulation of p53 target genes”. Moreover, in the data set on RS4;11 xenograft tumors (100 mg/kg, oral, daily dosing (5 days a week)), the antitumor activity result is on record as “effectively retards tumor growth over the control”. The “weight loss or other signs of toxicity” value in data set [8] is recorded as “no significant weight loss or other signs of toxicity”.
“(3’R,4’S,5’R)-6”-Chloro-4’-(3-Chloro-2-fluorophenyl)-N-(4-((5-(2-(2,6-dioxopiperidin-3-yl)-1-oxoisoindolin-5-yl)pent-4-yn-1-yl)carbamoyl)phenyl)-2”-oxodispiro[cyclohexane-1,2’-pyrrolidine-3’,3”-indoline]-5’-carboxamide [Compound 16]”: the “times less potent than MD-224 in inhibition of cell growth” value in the data set with RS4;11 cell line (RS4;11) turned out to be 3 times. Also, in the data set on RS4;11 cell line (setting [9]), the IC50 worked out at 5 ± 2 nM. The “effect on MDM2 and p53 protein levels” value in data set [6] (RS4;11 cells, 2 h treatment) was “effectively induce degradation of MDM2 and accumulation of p53”.
Turning to “(3’R,4’S,5’R)-6”-Chloro-4’-(3-chloro-2-fluorophenyl)-N-(4-((2-(2,6-dioxopiperidin-3-yl)-1-oxoisoindolin-4-yl)carbamoyl)phenyl)-2”-oxodispiro[cyclohexane-1,2’-pyrrolidine-3’,3”-indoline]-5’-carboxamide [Compound 3]”, the concentration for half-maximal inhibition (IC50) in the data set with RS4;11 cell line (setting [9]) was determined as 68.4 ± 36 nM. In [6] (RS4;11 cells, 2 h treatment), the “effect on MDM2 and p53 protein levels” value was “fails to induce MDM2 degradation”.
As for `CN1C(=O)CCC(N2Cc3c(C#CCCCNC(=O)c4ccc(NC(=O)[C@@H]5NC6(CCCCC6)[C@@]6(C(=O)Nc7cc(Cl)ccc76)[C@H]5c5cccc(Cl)c5F)cc4)cccc3C2=O)C1=O` (stereo partly drawn) [Compound 22, (3’R,4’S,5’R)-6”-Chloro-4’-(3-chloro-2-fluorophenyl)-N-(4-((5-(2-(1-methyl-2,6-dioxopiperidin-3-yl)-1-oxoisoindolin-4-yl)pent-4-yn-1-yl)carbamoyl)phenyl)-2”-oxodispiro[cyclohexane-1,2’-pyrrolidine-3’,3”-indoline]-5’-carboxamide], the “times less potent than MD-224 in inhibition of cell growth” value in the data set on RS4;11 cell line (RS4;11) is recorded as above 100 times. The “effect on MDM2 and p53 protein levels” value in [6] (RS4;11 cells, 2 h treatment) was “completely inactive in inducing MDM2 degradation”.
For the compound “(3’R,4’S,5’R)-6”-Chloro-4’-(3-Chloro-2-fluorophenyl)-N-(4-(((S)-14-((2S,4R)-4-hydroxy-2-(((S)-1-(4-(4-methylthiazol-5-yl)phenyl)ethyl)carbamoyl)pyrrolidine-1-carbonyl)-15,15-dimethyl-12-oxo-3,6,9-trioxa-13-azahexadecyl)carbamoyl)phenyl)-2”-oxodispiro[cyclohexane-1,2’-pyrrolidine-3’,3”-indoline]-5’-carboxamide [Compound 20]”, the IC50 in the data set on RS4;11 cell line (setting [9]) is 340 ± 20 nM; in the data set on RS4;11 cell line (read-out: IC50 in the cell growth assay in the RS4;11 cell line), 300 nM. In data set [6] (RS4;11 cells, 12 h treatment), the “effect on MDM2 protein level (western blotting)” value is recorded as “fails to reduce the level of MDM2 protein”.
